The record followed here is patent publication US20250163119A1, “COMPOUNDS FOR THE TREATMENT OF DIABETES OR OBESITY” (Eli Lilly and Company, priority 2023, published 2025).

*1 amine or outer side, *2 acyl side, *3 side chain or, on linkers, in order; H or OH if unused. Where a SMILES comes first, the peptide text is derived from it. Side-chain parts run from the residue outwards. [ ]: non-standard residue; d: D form. The star is where a group is joined. C20 diacid = O=C(O)CCCCCCCCCCCCCCCCCCC(=O)*; γGlu = O=C(O)[C@H](CCC(=O)[*:2])N[*:1]; εLys = N[C@@H](CCCCN[*:1])C(=O)[*:2]; NMeI = CC[C@H](C)[C@H](NC)C(=O)O; pGlu = O=C1CC[C@@H](C(=O)O)N1; αMeL = CC(C)C[C@](C)(N)C(=O)O; AEEA = NCCOCCOCC(=O)O; Aib = CC(C)(N)C(=O)O

The target of assay [1] is T1, human CRHR2 (Homo sapiens, UniProt Q13324).
T1 construct: expressed in transfected cells
T1 sequence (Q13324 1-438 isoform Q13324-2): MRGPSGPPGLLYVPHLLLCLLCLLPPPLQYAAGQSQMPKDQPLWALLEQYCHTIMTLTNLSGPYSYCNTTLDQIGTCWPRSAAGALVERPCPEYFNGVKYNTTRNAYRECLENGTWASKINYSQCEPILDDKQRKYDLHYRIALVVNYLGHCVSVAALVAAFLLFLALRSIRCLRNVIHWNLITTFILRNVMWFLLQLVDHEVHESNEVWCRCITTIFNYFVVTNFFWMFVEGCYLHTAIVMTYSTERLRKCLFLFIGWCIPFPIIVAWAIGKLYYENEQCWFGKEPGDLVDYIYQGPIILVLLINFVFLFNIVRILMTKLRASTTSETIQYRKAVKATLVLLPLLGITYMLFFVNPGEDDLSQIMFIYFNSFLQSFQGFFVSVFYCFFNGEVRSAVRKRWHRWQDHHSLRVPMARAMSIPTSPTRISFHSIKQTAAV
As to the kind of experiment: Human CRHR2 cAMP assay (HTRF) in HEK293 cells stably expressing human CRHR2. In kind it is cell-based. To be noted: HEK293 cells overexpressing human CRHR2; relative EC50, maximum 10 nM human UCN2; mean ± SE; read-out: hCRHR2 cAMP EC50 (pM, ± SE). The method in brief: (§1)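 Gs-coupled receptor activation was followed as intracellular cAMP in stably transfected HEK293 cells, 25,000 (CRHR1) or 5,000 (CRHR2) per well, with 0.25 mM IBMX present. Stimulation lasted 1 h at 37° C for CRHR1 and 30 min at room temperature for CRHR2.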

The target of assay [2] is T2, human CRHR1 (Homo sapiens, UniProt P34998).
T2 construct: expressed in transfected cells
T2 sequence (P34998 24-415): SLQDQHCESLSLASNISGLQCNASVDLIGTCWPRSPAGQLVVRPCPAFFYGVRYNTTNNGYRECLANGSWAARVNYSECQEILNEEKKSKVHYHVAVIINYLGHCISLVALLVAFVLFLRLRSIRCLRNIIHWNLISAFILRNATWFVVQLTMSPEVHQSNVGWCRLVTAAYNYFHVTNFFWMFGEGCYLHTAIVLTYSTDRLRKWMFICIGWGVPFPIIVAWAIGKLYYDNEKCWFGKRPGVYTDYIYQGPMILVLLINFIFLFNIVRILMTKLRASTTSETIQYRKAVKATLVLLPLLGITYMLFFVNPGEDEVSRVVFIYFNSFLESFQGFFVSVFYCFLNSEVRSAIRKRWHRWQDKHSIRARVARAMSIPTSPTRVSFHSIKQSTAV
As to the kind of experiment: Human CRHR1 cAMP assay (HTRF) in HEK293 cells stably expressing human CRHR1. The class given is cell-based. The following applies: HEK293 cells overexpressing human CRHR1; relative EC50, maximum 66 nM human UCN1; mean ± SE; read-out: hCRHR1 cAMP EC50 (pM, ± SE). An outline of the steps:
as §1

Take “Ac-PPPIVTS[αMeL]DVPT[Aib][αMeL]LQKLLEQERAEKARQQAK([γGlu-AEEA-εLys-C20 diacid])EAAEILAQV-NH2 [SEQ ID NO: 48, Ac-PPPIVTS αMeL DVPT Aib αMeL LQKLLEQERAEKARQQAK(γE-(2-[2-(2-Amino-ethoxy)-ethoxy]-acetyl)-ϵK-CO-(CH2)18-CO2H)EAAEILAQV-NH2]”: the EC50 in assay [1] was 26.7 ± 3.8 pM; in assay [2], over 1e+07 pM.
The like results for “[pGlu]GSPSGIVTS[αMeL]DVPT[Aib][αMeL]LQKILEQERAEKARQQAK([γGlu-AEEA-εLys-C20 diacid])EAAEILAQV-NH2 [SEQ ID NO: 22, Pyr-GSPSGIVTS αMeL DVPT Aib αMeL LQKILEQERAEKARQQAK(γE-(2-[2-(2-Amino-ethoxy)-ethoxy]-acetyl)-ϵK-CO-(CH2)18-CO2H)EAAEILAQV-NH2]” were, in that order, 11.3 ± 3 pM and over 1e+07 pM.
For “Ac-GSPSIVTS[αMeL]DVPT[Aib][αMeL]LQKLLEQERAEKARQQAK([γGlu-AEEA-εLys-C20 diacid])EAAEILAQV-NH2 [SEQ ID NO: 2, Ac-GSPSIVTS αMeL DVPT Aib αMeL LQKLLEQERAEKARQQAK(γE-(2-[2-(2-Amino-ethoxy)-ethoxy]-acetyl)-ϵK-CO-(CH2)18-CO2H)EAAEILAQV-NH2]”, in that order: 12.3 ± 1.8 pM and over 1e+07 pM.
The like results for `CC[C@H](C)[C@H](NC(C)=O)C(=O)N[C@H](C(=O)N[C@H](C(=O)N[C@@H](CO)C(=O)N[C@@](C)(CC(C)C)C(=O)N[C@@H](CC(=O)O)C(=O)N[C@@H](C(=O)N1CCC[C@H]1C(=O)N[C@H](C(=O)NC(C)(C)C(=O)N[C@@](C)(CC(C)C)C(=O)N[C@@H](CC(C)C)C(=O)N[C@@H](CCC(N)=O)C(=O)N[C@H](C(=O)N[C@@H](CCCCN)C(=O)N[C@@H](CC(C)C)C(=O)N[C@@H](CCC(=O)O)C(=O)N[C@@H](CCC(N)=O)C(=O)N[C@@H](CCC(=O)O)C(=O)N[C@@H](CCCNC(=N)N)C(=O)N[C@@H](C)C(=O)N[C@@H](CCC(=O)O)C(=O)N[C@@H](CCCCN)C(=O)N[C@@H](C)C(=O)N[C@@H](CCCNC(=N)N)C(=O)N[C@@H](CCC(N)=O)C(=O)N[C@@H](CCC(N)=O)C(=O)N[C@@H](C)C(=O)N[C@@H](CCCCNC(=O)COCCOCCNC(=O)COCCOCCNC(=O)CC[C@H](NC(=O)CCCCCCCCCCCCCCCCCCC(=O)O)C(=O)O)C(=O)N[C@@H](CCC(=O)O)C(=O)N[C@@H](CC(N)=O)C(=O)N[C@H](C(=O)N[C@@H](CCC(=O)O)C(=O)N[C@H](C(=O)N[C@@H](CC(C)C)C(=O)N[C@@H](C)C(=O)N[C@@H](CCC(N)=O)C(=O)N[C@H](C(N)=O)C(C)C)[C@@H](C)CC)[C@@H](C)O)[C@@H](C)CC)[C@@H](C)O)C(C)C)[C@@H](C)O)C(C)C` [SEQ ID NO: 41, Ac-IVTS αMeL D (D-Val) PT Aib αMeL LQIKLEQERAEKARQQAK((2-[2-(2-Amino-ethoxy)-ethoxy]-acetyl)2-γE-CO-(CH2)18-CO2H)ENTEILAQV-NH2] (Ac-IVTS[αMeL]D[dV]PT[Aib][αMeL]LQIKLEQERAEKARQQAK([AEEA-AEEA-γGlu-C20 diacid])ENTEILAQV-NH2) were, in that order, 7 ± 0.9 pM and 3.7e+06 pM.
Turning to `CC[C@H](C)[C@H](NC(C)=O)C(=O)N[C@H](C(=O)N[C@H](C(=O)N[C@@H](CO)C(=O)N[C@@](C)(CC(C)C)C(=O)N[C@@H](CC(=O)O)C(=O)N[C@@H](C(=O)N1CCC[C@H]1C(=O)N[C@H](C(=O)NCC(=O)N[C@@](C)(CC(C)C)C(=O)N[C@@H](CC(C)C)C(=O)N[C@@H](CCC(N)=O)C(=O)N[C@H](C(=O)N[C@@H](CCCCN)C(=O)N[C@@H](CC(C)C)C(=O)N[C@@H](CCC(=O)O)C(=O)N[C@@H](CCC(N)=O)C(=O)N[C@@H](CCC(=O)O)C(=O)N[C@@H](CCCNC(=N)N)C(=O)N[C@@H](C)C(=O)N[C@@H](CCC(=O)O)C(=O)N[C@@H](CCCCN)C(=O)N[C@@H](C)C(=O)N[C@@H](CCCNC(=N)N)C(=O)N[C@@H](CCC(N)=O)C(=O)N[C@@H](CCC(N)=O)C(=O)N[C@@H](C)C(=O)N[C@@H](CCCCNC(=O)COCCOCCNC(=O)COCCOCCNC(=O)CC[C@H](NC(=O)CCCCCCCCCCCCCCCCCCC(=O)O)C(=O)O)C(=O)N[C@@H](CCC(=O)O)C(=O)N[C@@H](CC(N)=O)C(=O)N[C@H](C(=O)N[C@@H](CCC(=O)O)C(=O)N[C@H](C(=O)N[C@@H](CC(C)C)C(=O)N[C@@H](C)C(=O)N[C@@H](CCC(N)=O)C(=O)N[C@H](C(N)=O)C(C)C)[C@@H](C)CC)[C@@H](C)O)[C@@H](C)CC)[C@@H](C)O)C(C)C)[C@@H](C)O)C(C)C` [SEQ ID NO: 29, Ac-IVTS αMeL D (D-Val) PTG αMeL LQIKLEQERAEKARQ QAK((2-[2-(2-Amino-ethoxy)-ethoxy]-acetyl)2-γE-CO-(CH2)18-CO2H)ENTEILAQV-NH2] (Ac-IVTS[αMeL]D[dV]PTG[αMeL]LQIKLEQERAEKARQQAK([AEEA-AEEA-γGlu-C20 diacid])ENTEILAQV-NH2), the EC50 in assay [1] was 5.6 ± 0.4 pM; in assay [2] it was over 1e+07 pM.
The like results for “Ac-GSPSIVTS[αMeL]DVPT[Aib][αMeL]LQKILEQERAEKARQQAK([γGlu-AEEA-εLys-C20 diacid])EAAEILAQV-NH2 [SEQ ID NO: 1, Ac-GSPSIVTS αMeL DVPT Aib αMeL LQKILEQERAEKARQQAK(γE-(2-[2-(2-Amino-ethoxy)-ethoxy]-acetyl)-ϵK-CO-(CH2)18-CO2H)EAAEILAQV-NH2]” were, in that order, 9.3 ± 1.1 pM and over 1e+07 pM.
Regarding `CC[C@H](C)[C@H](NC)C(=O)N[C@H](C(=O)N[C@H](C(=O)N[C@@H](CO)C(=O)N[C@@H](CC(C)C)C(=O)N[C@@H](CC(=O)O)C(=O)N[C@H](C(=O)N1CCC[C@H]1C(=O)N[C@H](C(=O)NCC(=O)N[C@@](C)(CC(C)C)C(=O)N[C@@H](CC(C)C)C(=O)N[C@@H](CCC(N)=O)C(=O)N[C@@H](CCCCN)C(=O)N[C@@H](CC(C)C)C(=O)N[C@H](C(=O)N[C@@H](CCC(=O)O)C(=O)N[C@@H](CCC(N)=O)C(=O)N[C@@H](CCC(=O)O)C(=O)N[C@@H](CCCCN)C(=O)N[C@@H](CCC(N)=O)C(=O)N[C@@H](CCC(=O)O)C(=O)N[C@@H](CCCCN)C(=O)N[C@@H](CCC(=O)O)C(=O)N[C@@H](CCCCN)C(=O)N[C@@H](CCC(N)=O)C(=O)N[C@@H](CCC(N)=O)C(=O)N[C@@H](C)C(=O)N[C@@H](CCCCNC(=O)COCCOCCNC(=O)COCCOCCNC(=O)CC[C@H](NC(=O)CCCCCCCCCCCCCCCCCCC(=O)O)C(=O)O)C(=O)N[C@@H](CCC(=O)O)C(=O)N[C@@H](CC(N)=O)C(=O)N[C@H](C(=O)N[C@@H](CCC(=O)O)C(=O)N[C@H](C(=O)N[C@@H](CC(C)C)C(=O)N[C@@H](C)C(=O)N[C@@H](CCC(N)=O)C(=O)N[C@H](C(N)=O)C(C)C)[C@@H](C)CC)[C@@H](C)O)[C@@H](C)CC)[C@@H](C)CC)C(C)C)[C@@H](C)O)C(C)C` [SEQ ID NO: 49, (NMeI) VTSLDVPIG αMeL LQKLIEQEKQEKEKQQAK((2-[2-(2-Amino-ethoxy)-ethoxy]-acetyl)2-γE-CO-(CH2)18-CO2H)ENTEILAQV-NH2] (H-[NMeI]VTSLDVPIG[αMeL]LQKLIEQEKQEKEKQQAK([AEEA-AEEA-γGlu-C20 diacid])ENTEILAQV-NH2), the values for the EC50 in assay [1] and in assay [2] were 6.6 ± 0.9 pM and over 1e+07 pM, respectively.
As to `CC[C@H](C)[C@H](NC)C(=O)N[C@H](C(=O)N[C@@H](CC(C)C)C(=O)N[C@@H](CO)C(=O)N[C@@H](CC(C)C)C(=O)N[C@@H](CC(=O)O)C(=O)N[C@H](C(=O)N1CCC[C@H]1C(=O)N[C@H](C(=O)NCC(=O)N[C@@H](CC(C)C)C(=O)N[C@@H](CC(C)C)C(=O)N[C@@H](CCC(N)=O)C(=O)N[C@H](C(=O)N[C@@H](CC(C)C)C(=O)N[C@@H](CC(C)C)C(=O)N[C@@H](CCC(=O)O)C(=O)N[C@@H](CCC(N)=O)C(=O)N[C@@H](CCC(=O)O)C(=O)N[C@@H](CCCCN)C(=O)N[C@@H](CCC(N)=O)C(=O)N[C@@H](CCC(=O)O)C(=O)N[C@@H](CCCCN)C(=O)N[C@@H](CCC(=O)O)C(=O)N[C@@H](CCCCN)C(=O)N[C@@H](CCC(N)=O)C(=O)N[C@@H](CCC(N)=O)C(=O)N[C@@H](C)C(=O)N[C@@H](CCCCNC(=O)COCCOCCNC(=O)COCCOCCNC(=O)CC[C@H](NC(=O)CC[C@H](NC(=O)CCCCCCCCCCCCCCCCCCC(=O)O)C(=O)O)C(=O)O)C(=O)N[C@H](C(=O)N[C@@H](CC(N)=O)C(=O)N[C@@H](C)C(=O)N[C@@H](CCC(N)=O)C(=O)N[C@H](C(=O)N[C@@H](CC(C)C)C(=O)N[C@@H](C)C(=O)N[C@@H](CCC(N)=O)C(=O)N[C@H](C(N)=O)C(C)C)[C@@H](C)CC)[C@@H](C)O)[C@@H](C)CC)[C@@H](C)CC)C(C)C)C(C)C` [SEQ ID NO: 54] (H-[NMeI]VLSLDVPIGLLQILLEQEKQEKEKQQAK([AEEA-AEEA-γGlu-γGlu-C20 diacid])TNAQILAQV-NH2), the figures for the EC50 in assay [1] and in assay [2] were 29.8 ± 2.5 pM and over 1e+07 pM, respectively.
